Starred links: 1 amine or outer side, 2 acyl side, 3 side chain; linkers in the order of their positions; H or OH if unused. Positions of bridges follow the written chain, without caps; N, C: chain ends. Non-standard residues stand in square brackets, D forms with d. Residues, ends and D or L forms follow the SMILES beside them. Groups on a side chain read outwards from the residue. Primed or numbered codes have the meaning given here. *: point of attachment. X6 = CSCC[C@H](NC(=O)c1ccc(CNC(=O)CN2CCN(CC(=O)O)CCN(CC(=O)O)CCN(CC(=O)O)CC2)cc1)C(=O)N[C@H](C(=O)N[C@@H](CCCCN*)C(=O)O)C(C)C; Ala(piperidin-4-yl) = O=C([C@H](CC1CCN([*:3])CC1)N[*:1])[*:2]; DOTA = O=C(O)CN1CCN(CC(=O)O)CCN(CC(=O)*)CCN(CC(=O)O)CC1; PipAla = piperidinyl-alanine residue (as named); Phe(4-COOH) = N[C@@H](Cc1ccc(C(=O)O)cc1)C(=O)O; Trp(5-F) = N[C@@H](Cc1c[nH]c2ccc(F)cc12)C(=O)O; X1 = C[C@@H](c1ccccc1)[C@H](N[*:1])C(=O)[*:2]; PEG4′ = 4x 3-(2-aminoethoxy)propanoic acid; γGlu = O=C(O)[C@H](CCC(=O)[*:2])N[*:1]; 1Nal = N[C@@H](Cc1cccc2ccccc12)C(=O)O; Ala(4-THP) = N[C@@H](CC1CCOCC1)C(=O)O; Lys(Me2) = CN(C)CCCC[C@H](N)C(=O)O; Val(3-OH) = CC(C)(O)[C@H](N)C(=O)O; hCha = N[C@@H](CCC1CCCCC1)C(=O)O; PEG4 = NCCOCCOCCOCCOCCC(=O)O; Tle = CC(C)(C)[C@H](N)C(=O)O; hLeu = CC(C)CC[C@H](N)C(=O)O; Nle = CCCC[C@H](N)C(=O)O; PEG8′ = not defined here
B1: Cpd 485 (peptide)
peptide: Ac-[hCha]YC[Tle]G[PipAla]([PEG4′-DOTA])[Ala(4-THP)]DVYC[Trp(5-F)]F[Val(3-OH)][dA]-OH
modifications: disulfide 3-11 (inferred)
B2: Cpd 314 (peptide)
peptide: Ac-[hLeu]YC[Tle]G[Ala(piperidin-4-yl)][Phe(4-COOH)]DVYC[1Nal]FP[dK](DOTA)-NH2
modifications: disulfide 3-11 (inferred)
B3: Cpd 33 (peptide)
peptide: Ac-[Nle]YCVGKYDVYCWFT-OH
modifications: disulfide 3-11
B4: Cpd 5 (peptide)
peptide: {DOTA-PEG8′}-[Nle]YCVGKYDVYCWF-NH2
modifications: disulfide 3-11
B5: Cpd 29 (peptide)
peptide: Ac-[Nle]YCVGKYDVYCWFE[dK](DOTA)-NH2
modifications: disulfide 3-11
SMILES: CCCC[C@H](NC(C)=O)C(=O)N[C@@H](Cc1ccc(O)cc1)C(=O)N[C@H]1CSSC[C@@H](C(=O)N[C@@H](Cc2c[nH]c3ccccc23)C(=O)N[C@@H](Cc2ccccc2)C(=O)N[C@@H](CCC(=O)O)C(=O)N[C@H](CCCCNC(=O)CN2CCN(CC(=O)O)CCN(CC(=O)O)CCN(CC(=O)O)CC2)C(N)=O)NC(=O)[C@H](Cc2ccc(O)cc2)NC(=O)[C@H](C(C)C)NC(=O)[C@H](CC(=O)O)NC(=O)[C@H](Cc2ccc(O)cc2)NC(=O)[C@H](CCCCN)NC(=O)CNC(=O)[C@H](C(C)C)NC1=O

Assays:
2Ig B7-H3 = target: T1, 2Ig B7-H3 (Homo sapiens, UniProt Q5ZPR3); test: SPR binding affinity to 2Ig B7-H3; conditions: 37° C.; read-out: 2Ig B7-H3_KD (nM) at 37° C.
T1 sequence (Q5ZPR3 29-316 isoform Q5ZPR3-2 limits assumed): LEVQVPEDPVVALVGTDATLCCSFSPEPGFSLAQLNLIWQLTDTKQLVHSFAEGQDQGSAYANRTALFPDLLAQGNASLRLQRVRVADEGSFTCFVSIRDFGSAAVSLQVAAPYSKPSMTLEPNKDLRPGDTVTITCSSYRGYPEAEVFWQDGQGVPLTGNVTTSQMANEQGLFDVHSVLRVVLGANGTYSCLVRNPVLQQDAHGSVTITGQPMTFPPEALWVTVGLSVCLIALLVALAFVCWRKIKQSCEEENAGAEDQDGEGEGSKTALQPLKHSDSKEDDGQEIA

Calu-6 cell line [1] = test: Cell associated (bound) fraction of [177Lu]Lu-labeled peptide in Calu-6 cells; format: cell-based, Human; conditions: 1 hour, 37° C.
How it was run: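 Detached B7-H3-expressing human lung cancer cells at 5 million/mL were exposed for 1 hour at 37 °C to 0.8 μCi of the 177Lu-labelled peptide, which was formulated in 1% PBSA after labelling at 80 °C, pH ~5. Supernatant and two cold washes counted as unbound, and resuspended cells gamma-counted as the cell-associated fraction.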

Calu-6 cell line [2] = test: Net internalization of [177Lu]Lu-labeled peptide in Calu-6 cells; format: cell-based, Human; conditions: 1 hour, 37° C., glycine pH 2.5 acid wash
How it was run: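 Calu-6 cells, human non-engineered lung cancer expressing B7-H3, resuspended in 1% PBSA at 5 million cells/mL and incubated with the 177Lu-labeled conjugate (labeled at 80 °C, pH ~5, RP-HPLC checked). Gamma counting of the bound fraction, then of the pellet after two glycine pH 2.5 acid strips and NaOH lysis, gives internalized activity.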

human 4lg B7-H3 = target: T2, human 4lg B7-H3 (Homo sapiens, UniProt Q5ZPR3); test: Affinity determination by surface plasmon resonance (SPR) to 4Ig B7-H3; conditions: SPR KD—37° C., 4Ig B7-H3; 37° C. flow cell temperature
T2 sequence (Q5ZPR3 29-534): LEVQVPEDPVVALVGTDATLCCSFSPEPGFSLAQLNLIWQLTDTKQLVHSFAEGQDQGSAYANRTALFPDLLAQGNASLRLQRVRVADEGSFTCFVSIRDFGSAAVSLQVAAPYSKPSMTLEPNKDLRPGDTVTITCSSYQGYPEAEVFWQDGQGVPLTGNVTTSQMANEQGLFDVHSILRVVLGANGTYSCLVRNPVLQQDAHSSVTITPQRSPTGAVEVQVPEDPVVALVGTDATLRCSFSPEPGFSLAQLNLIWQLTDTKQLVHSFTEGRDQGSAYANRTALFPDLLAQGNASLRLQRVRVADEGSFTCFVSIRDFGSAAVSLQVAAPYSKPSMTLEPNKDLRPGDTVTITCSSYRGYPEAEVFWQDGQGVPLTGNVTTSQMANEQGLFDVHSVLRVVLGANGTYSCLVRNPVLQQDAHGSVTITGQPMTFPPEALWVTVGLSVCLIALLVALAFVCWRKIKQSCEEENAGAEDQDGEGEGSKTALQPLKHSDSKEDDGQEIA

[3] = target: Biotinylated human 4Ig B7-H3 (human) (UniProt Q5ZPR3); test: SPR 37C; A = KD<=1.0 nM
[4] = target: T3, Biotinylated human 4Ig B7-H3 (human, UniProt Q5ZPR3 29-461, limits assumed, biotinylated (site not stated)); test: SPR 37C; C = 10<KD<=100 nM
T3 construct: Protein captured on the SA chip for SPR; also called 4lg-B7-H3; B7-H3 isoform 4Ig
T3 sequence: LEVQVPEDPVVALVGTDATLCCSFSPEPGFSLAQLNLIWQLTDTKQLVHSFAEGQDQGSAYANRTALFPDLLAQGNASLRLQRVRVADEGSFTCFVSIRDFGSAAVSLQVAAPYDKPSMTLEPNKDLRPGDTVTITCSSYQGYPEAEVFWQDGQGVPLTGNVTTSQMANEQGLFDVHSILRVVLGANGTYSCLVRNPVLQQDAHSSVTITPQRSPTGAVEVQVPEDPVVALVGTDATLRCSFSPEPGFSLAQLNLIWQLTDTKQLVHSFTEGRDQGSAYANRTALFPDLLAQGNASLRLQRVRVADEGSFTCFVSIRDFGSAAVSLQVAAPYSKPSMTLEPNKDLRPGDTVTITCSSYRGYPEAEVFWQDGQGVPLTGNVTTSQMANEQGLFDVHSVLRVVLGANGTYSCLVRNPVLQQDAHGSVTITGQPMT

Molecule	Kd (2Ig B7-H3)	Kd (human 4lg B7-H3)	KD [4]	further results
CC(=O)N[C@@H](CCC(C)C)C(=O)N[C@@H](Cc1ccc(O)cc1)C(=O)N[C@H]1CSSC[C@@H](C(=O)N[C@@H](Cc2c[nH]c3ccc(F)cc23)C(=O)N[C@@H](Cc2ccccc2)C(=O)N[C@H](C(=O)N[C@H](CCC(=O)O)C(N)=O)C(C)(C)O)NC(=O)[C@H](Cc2ccc(O)cc2)NC(=O)[C@H](C(C)C)NC(=O)[C@H](CC(=O)O)NC(=O)[C@H](CC2CCN(C(=O)CCOCCOCCOCCOCCNC(=O)CN3CCN(CC(=O)O)CCN(CC(=O)O)CCN(CC(=O)O)CC3)CC2)NC(=O)[C@H](CCCCN)NC(=O)CNC(=O)[C@H](C(C)(C)C)NC1=O [compound 410, Ac-hLeu-Y-C-Tbg-G-K-Pip(PEG4-DOTA)Ala-D-V-Y-C-5FW-F-hydroxyVal-dGlu-CONH2] (Ac-[hLeu]YC[Tle]GK[Ala(piperidin-4-yl)]([PEG4-DOTA])DVYC[Trp(5-F)]F[Val(3-OH)][dE]-NH2; disulfide 3-11)	820 nM	< 1 nM	–	% cell associated fraction (Calu-6 cell line [1]): B (25<%≤50); % net internalization (Calu-6 cell line [2]): A (%≤25)
CC(=O)N[C@@H](CCC(C)C)C(=O)N[C@@H](Cc1ccc(O)cc1)C(=O)N[C@H]1CSSC[C@@H](C(=O)N[C@@H](Cc2c[nH]c3ccc(F)cc23)C(=O)N[C@@H](Cc2ccccc2)C(=O)N[C@H](C(=O)N[C@H](CO)C(N)=O)C(C)(C)O)NC(=O)[C@H](Cc2ccc(O)cc2)NC(=O)[C@H](C(C)C)NC(=O)[C@H](CC(=O)O)NC(=O)[C@H](CC2CCN(C(=O)CCOCCOCCOCCOCCNC(=O)CN3CCN(CC(=O)O)CCN(CC(=O)O)CCN(CC(=O)O)CC3)CC2)NC(=O)[C@H](CCCCN)NC(=O)CNC(=O)[C@H](C(C)(C)C)NC1=O [compound 408, Ac-hLeu-Y-C-Tbg-G-K-Pip(PEG4-DOTA)Ala-D-V-Y-C-5FW-F-hydroxyVal-dSer-CONH2] (Ac-[hLeu]YC[Tle]GK[Ala(piperidin-4-yl)]([PEG4-DOTA])DVYC[Trp(5-F)]F[Val(3-OH)][dS]-NH2; disulfide 3-11)	920 nM	< 1 nM	–	% cell associated fraction (Calu-6 cell line [1]): C (%>50); % net internalization (Calu-6 cell line [2]): A (%≤25)
CSCC[C@H](NC(=O)c1ccc(CNC(=O)CN2CCN(CC(=O)O)CCN(CC(=O)O)CCN(CC(=O)O)CC2)cc1)C(=O)N[C@H](C(=O)N[C@@H](CCCCNC(=O)CC[C@@H]1NC(=O)CNC(=O)[C@H](C(C)(C)C)NC(=O)[C@@H](NC(=O)[C@H](Cc2ccc(O)cc2)NC(=O)[C@H](CCC(C)C)NC(C)=O)CSSC[C@@H](C(=O)N[C@@H](Cc2c[nH]c3ccc(F)cc23)C(=O)N[C@H](C(=O)N[C@H](C(=O)N[C@H](CO)C(=O)O)C(C)(C)O)[C@@H](C)c2ccccc2)NC(=O)[C@H](Cc2ccc(O)cc2)NC(=O)[C@H](C(C)C)NC(=O)[C@H](CC(=O)O)NC(=O)[C@H](CC2CCOCC2)NC1=O)C(=O)O)C(C)C [compound 519, Ac-hLeu-Y-C-Tbg-G-Glu[&Lys(OH)-Val-Met-AmBz-DOTA]-ThpA-D-V-Y-C-5FW-[(2S, 3S)beta-Me-Phe]-hydroxyVal-dSer-COOH] (Ac-[hLeu]YC[Tle]GE(X6)[Ala(4-THP)]DVYC[Trp(5-F)][X1][Val(3-OH)][dS]-OH; disulfide 3-11)	510 nM	< 1 nM	–	–
CC(=O)N[C@@H](CCC(C)C)C(=O)N[C@@H](Cc1ccc(O)cc1)C(=O)N[C@H]1CSSC[C@@H](C(=O)N[C@@H](Cc2c[nH]c3ccc(F)cc23)C(=O)N[C@@H](Cc2ccccc2)C(=O)N[C@H](C(=O)N[C@H](CCC(=O)O)C(N)=O)C(C)(C)O)NC(=O)[C@H](Cc2ccc(O)cc2)NC(=O)[C@H](C(C)C)NC(=O)[C@H](CC(=O)O)NC(=O)[C@H](CC2CCOCC2)NC(=O)[C@H](CC2CCN(C(=O)CC[C@H](NC(=O)CN3CCN(CC(=O)O)CCN(CC(=O)O)CCN(CC(=O)O)CC3)C(=O)O)CC2)NC(=O)CNC(=O)[C@H](C(C)(C)C)NC1=O [compound 475, Ac-hLeu-Y-C-Tbg-G-Pip(gE-DOTA)Ala-ThpA-D-V-Y-C-5FW-F-hydroxyVal-dGlu-CONH2] (Ac-[hLeu]YC[Tle]G[Ala(piperidin-4-yl)]([γGlu-DOTA])[Ala(4-THP)]DVYC[Trp(5-F)]F[Val(3-OH)][dE]-NH2; disulfide 3-11)	> 10000 nM	1 to 10 nM	–	–
CC(=O)N[C@@H](CCC(C)C)C(=O)N[C@@H](Cc1ccc(O)cc1)C(=O)N[C@H]1CSSC[C@@H](C(=O)N[C@@H](Cc2c[nH]c3ccc(F)cc23)C(=O)N[C@H](C(=O)N[C@H](C(=O)N[C@H](C)C(=O)O)C(C)(C)O)[C@@H](C)c2ccccc2)NC(=O)[C@H](Cc2ccc(O)cc2)NC(=O)[C@H](C(C)C)NC(=O)[C@H](CC(=O)O)NC(=O)[C@H](CC2CCN(C(=O)CCOCCOCCOCCOCCNC(=O)CN3CCN(CC(=O)O)CCN(CC(=O)O)CCN(CC(=O)O)CC3)CC2)NC(=O)[C@H](CCCCN(C)C)NC(=O)CNC(=O)[C@H](C(C)(C)C)NC1=O [compound 521, Ac-hLeu-Y-C-Tbg-G-Lys(Me)2-Pip(PEG4-DOTA)Ala-D-V-Y-C-5FW-[(2S, 3S)beta-Me-Phe]-hydroxyVal-dAla-COOH] (Ac-[hLeu]YC[Tle]G[Lys(Me2)][Ala(piperidin-4-yl)]([PEG4-DOTA])DVYC[Trp(5-F)][X1][Val(3-OH)][dA]-OH; disulfide 3-11)	260 nM	< 1 nM	–	–
B1	–	–	–	KD [3]: < 1 nM
B2	–	–	–	KD [3]: < 1 nM
B3	–	–	10 to 100 nM	–
B4	–	–	10 to 100 nM	–
B5	–	–	10 to 100 nM	–
